Measured values as given in patent publication US6159983A, “Method and composition for treatment of inflammatory bowel disease” (University of Florida, priority 1998, dated 2000).

Columns and labels:
ulcerative colitis = conditions: cited from earlier work
[1] = tested on: acetic acid-induced colitis; assay: Acetic acid-induced colitis in the rat (pre-treatment, intrarectal); type: in vivo, rat (Sprague-Dawley); conditions: for effectiveness against acetic acid-induced colitis: i.r., 650 μmol/kg, before acetic acid, rat
Description: A typical model of IBD in acetic acid-induced colitis in the rat has been described by Krawisz et al in Amer. J. Proc. Gastro. Col. Rec. Surg., Vol. 31, pages 11-18 (1980); and by Sharon et al in Gastroenterology, Vol. 88, pages 55-63 (1985) and Vol. 86, pages 453-460 (1984). Acetic acid-induced colitis is characterized by the movement of inflammatory cells into the colon, with the number of such cells in the mucosa being measured by the activity of myeloperoxidase, a marker enzyme for these cells. Positive desirable activity is indicated by a reduction in the high levels of myeloperoxidase caused by acetic acid.
Typically, Sprague-Dawley rats from Charles River Laboratories, Portage, Michigan (either sex, weight approximately 250 g) are dosed with test compounds and controls. Thereafter, the rats are given an intracolonic enema of acetic acid which produces a severe inflammatory response in the colon of a healthy rat characterized by rectal bleeding, diarrhea, epithelial erosions and destructions of crypts and gland cells. Twenty-four hours later, the test and control animals are sacrificed and the distal ten centimeters of the colons are removed and opened longitudinally. The tissue lesions contained within the removed, opened section of the colons are scored.
After the systematic evaluation of the impact of various fasting times, use of vehicles, the time interval between pre-treatment and administration of the acetic acid and altering the concentration of acetic acid, the final protocol for the experiments is to fast the rats for 30 hours in hanging wire cages, anesthetize the animals with sodium pentobarbital, administer the test drug 1 cc intrarectally (i.r.) either as a suspension or a solution in water, and to give the acetic acid (7.5% in water) 1 cc i.r. 30 minutes later. The rats are sacrificed 24 hours later and the colons are removed and assessed for damage.

[2] = tested on: acetic acid-induced colitis; assay: Reversal studies: compound given 30 minutes after acetic acid; type: in vivo; conditions: given 30 minutes after 2.5% acetic acid; rat
[3] = Preliminary acute toxicity studies in mice; type: in vivo
[4] = Iron binding in a test tube
[5] = Iron chelation when given to rats orally or subcutaneously; type: in vivo; conditions: orally or subcutaneously (s.c.)
Crohn's disease = conditions: multiple controlled trials and a recent meta-analysis; cited from earlier work
[6] = patients treated long-term with 6MP or AZA for IBD; cited from earlier work

## O=C(O)c1cc(/N=N/c2ccc(S(=O)(=O)Nc3ccccn3)cc2)ccc1O [sulfasalazine]
Ulcerative colitis
  effectiveness for the treatment of acute UC: effective to some degree in some patients

## Cc1ccc(O)c(C2=NC(C(=O)O)CC2)c1 (centres unmarked) [2H-pyrrolecarboxylic acid, 3,4-dihydro-5-(2-hydroxy-5-methylphenyl)-2H-pyrrole-2-carboxylic acid]
[1]; 162.5 μmol/kg (41.5 mg/kg) at 1 cc i.r., rats
  dose response: prevention of severe lesions: severe lesions being prevented in a majority of rats
[1]; 650 μmol/kg vs. 1742 mmol/kg (so in the source), FIGS. 7 and 8
  head-to-head comparison with 5-ASA or its commercially available formulation (Rowasa): far superior even at a much lower dose
[1]; FIGS. 2-8
  damage to the colons compared with control rats: considerably less damage
[1]; expanded experiments
  damage in the colons of the rats, expanded experiments: very little damage
[1]; i.r. at 650 μmol/kg (165 mg/kg N-methylhydroxamate or 166 mg/kg 2H-pyrrolecarboxylic acid), 30 minutes before acetic acid, FIGS. 2-8
  damage in the colons of the test animals: very little damage
[2]
  lesions compared with the control group: less severe and less active
  state of the lesions (resolution, histology): apparently resolving and with some lamina proprial fibrosis and considerable hyper-plasia of submucosal lymphoid tissue
[3]; i.p., at doses up to 1 g/kg
  deaths: no deaths
[3]; preliminary
  acute toxicity: virtually non-toxic
[4]
  iron binding: binds iron remarkably well
[5]
  activity as an iron chelator: inactive

## C[C@]1(C(=O)O)CSC(c2ncccc2O)=N1 [DFT, reference compound]
[1]
  effectiveness against acetic acid-induced colitis: ineffective

## Cn1cnc([N+](=O)[O-])c1Sc1ncnc2nc[nH]c12 [AZA, azathioprine]
Crohn's disease
  efficacy in Crohn's disease: support the efficacy
Ulcerative colitis; several controlled trials
  use in ulcerative colitis: support the use
[6]
  dose-related leukopenia, patients affected: 2-5%

## Nc1ccc(O)c(C(=O)O)c1 [mesalamine, 5-aminosalicylic acid]
Ulcerative colitis
  effectiveness for the treatment of acute UC: effective to some degree in some patients

## CC(=O)N(O)CCCCCNC(=O)CCC(=O)N(O)CCCCCNC(=O)CCC(=O)N(O)CCCCCN [DFO, reference compound]
[1]
  effectiveness against acetic acid-induced colitis: ineffective

## Sc1ncnc2nc[nH]c12 [6MP, 6-Mercaptopurine]
Crohn's disease
  efficacy in Crohn's disease: support the efficacy
[6]
  dose-related leukopenia, patients affected: 2-5%
